Structures can show the parent of a compound that is named as a salt.
What follows are molecules tested on Acinetobacter baumannii ATCC17961 (assay: Antimicrobial susceptibility testing: 90% growth inhibitory concentration (IC90) determination, Iso-Sensitest broth). Conditions: 90% growth inhibitory concentration, Acinetobacter baumannii ATCC17961, Iso-Sensitest broth; read-out: ATCC 17961 IC90.
Format: cell-based
Description: The in vitro antimicrobial activity of the compounds was determined according to the following procedure:
The assay used a 10-points Iso-Sensitest broth medium to measure quantitatively the in vitro activity of the compounds against Acinetobacter baumannii ATCC17978 or ATCC17961.
Stock compounds in DMSO were serially twofold diluted (e.g. range from 10 to 0.02 μM final concentration) in 384 wells microtiter plates and inoculated with 49 μl the bacterial suspension in Iso-Sensitest medium to have a final cell concentration of ˜5×10^(5) CFU/ml in a final volume/well of 50 ul/well. Microtiter plates were incubated at 35±2° C.
Bacterial cell growth was determined with the measurement of optical density at k=600 nm each 20 minutes over a time course of 16 h. Growth inhibition was calculated during the logarithmic growth of the bacterial cells with determination of the concentration inhibiting 50% (IC50) and 90% (IC90) of the growth.
Table 1 provides the 90% growth inhibitory concentrations (IC90) in micromoles per liter of the compounds of present invention obtained against the strain Acinetobacter baumannii ATCC17978 or ATCC17961.

Work on “N-(azetidin-3- ylmethyl)-1-[2-chloro- 4-[[5-[4- (cyanomethoxy)-2,3- difluoro-phenyl]-1- methyl-imidazole-2- carbonyl]amino]benzoyl] piperidine-4- carboxamide trifluoroacetate [Example 264]” yielded an IC90 of 90 nM.

Same assay, conditions: Acinetobacter baumannii, ATCC17961, 90% growth inhibitory concentration, Acinetobacter baumannii ATCC17961, Iso-Sensitest broth; read-out: ATCC 17961 IC90

Compared with COc1ccc(-c2cnc(C(=O)Nc3ccc(C(=O)N4CCC(C(=O)N5CC(N)C5)CC4)c(Cl)c3)n2C)c(F)c1F [Example 33, N-[4-[4-(3-aminoazetidine-1-carbonyl)piperidine-1-carbonyl]-3-chloro-phenyl]-5-(2,3-difluoro-4-methoxy-phenyl)-1-methyl-imidazole-2-carboxamide trifluoroacetate], COc1ccc(-c2cnc(C(=O)Nc3ccc(C(=O)N4CCC(C(=O)N5CCN[C@H](CO)C5)CC4)c(Cl)c3)n2C)c(F)c1F [Example 29, N-[3-chloro-4-[4-[(3S)-3-(hydroxymethyl)piperazine-1-carbonyl]piperidine-1-carbonyl]phenyl]-5-(2,3-difluoro-4-methoxy-phenyl)-1-methyl-imidazole-2-carboxamide] is 2.1-fold higher in IC90: 90 nM for the first, 190 nM for the second.

First: Cn1c(-c2ccc(OC(F)F)c(F)c2Cl)cnc1C(=O)Nc1ccc(C(=O)N2CCN(C(=O)C3(O)CCNCC3)CC2)c(Cl)c1 [Example 169, 5-[2-chloro-4-(difluoromethoxy)-3-fluoro-phenyl]-N-[3-chloro-4-[4-(4-hydroxypiperidine-4-carbonyl)piperazine-1-carbonyl]phenyl]-1-methyl-imidazole-2-carboxamide formate]
Second: COc1ccc(-c2cnc(C(=O)Nc3ccc(C(=O)N4CCN(C(=O)CC5(O)CCNCC5)CC4)c(Cl)c3)n2C)c(Cl)c1F [Example 182, 5-(2-chloro-3-fluoro-4-methoxy-phenyl)-N-[3-chloro-4-[4-[2-(4-hydroxy-4-piperidyl)acetyl]piperazine-1-carbonyl]phenyl]-1-methyl-imidazole-2-carboxamide formate]
The IC90 of the first is 2.3-fold lower: 30 nM for the first, 70 nM for the second.

Cn1c(-c2ccc(OC(F)F)c(F)c2F)cnc1C(=O)Nc1ccc(C(=O)N2CCC(C(=O)NC3CCNCC3)CC2)c(Cl)c1 [Example 94, 1-(2-chloro-4-(5-(4-(difluoromethoxy)-2,3-difluorophenyl)-1-methyl-1H-imidazole-2-carboxamido)benzoyl)-N-(piperidin-4-yl)piperidine-4-carboxamide formate] and Cn1c(-c2ccc(OC(F)F)c(F)c2F)cnc1C(=O)Nc1ccc(C(=O)N2CCN(C(=O)C3CCNCC3)CC2)c(Cl)c1 [Example 249, N-[3-chloro-4-[4-(piperidine-4-carbonyl)piperazine-1-carbonyl]phenyl]-5-[4-(difluoromethoxy)-2,3-difluoro-phenyl]-1-methyl-imidazole-2-carboxamide formate] are within 1.5-fold of each other in IC90: 40 nM for the first, 30 nM for the second.

First: COc1ccc(-c2cnc(C(=O)Nc3ccc(C(=O)N4CCN(C(=O)CCCC(N)=O)CC4)c(Cl)c3)n2C)c(F)c1F [Example 122, N-[4-[4-(5-amino-5-oxo-pentanoyl)piperazine-1-carbonyl]-3-chloro-phenyl]-5-(2,3-difluoro-4-methoxy-phenyl)-1-methyl-imidazole-2-carboxamide]
Second: COc1ccc(-c2cnc(C(=O)Nc3ccc(C(=O)N4CCN(C(=O)CC5(O)CNC5)CC4)c(Cl)c3)n2C)c(F)c1F [Example 177, N-[3-chloro-4-[4-[2-(3-hydroxyazetidin-3-yl)acetyl]piperazine-1-carbonyl]phenyl]-5-(2,3-difluoro-4-methoxy-phenyl)-1-methyl-imidazole-2-carboxamide formate]
The IC90 of the first is 1.8-fold higher: 90 nM for the first, 50 nM for the second.

Cn1c(-c2ccc(OC(F)F)c(F)c2F)cnc1C(=O)Nc1ccc(C(=O)N2CCN(C(=O)C3CCN(C(=O)C4CNC4)CC3)CC2)c(Cl)c1 [Example 174, N-[4-[4-[1-(azetidine-3-carbonyl)piperidine-4-carbonyl]piperazine-1-carbonyl]-3-chloro-phenyl]-5-[4-(difluoromethoxy)-2,3-difluoro-phenyl]-1-methyl-imidazole-2-carboxamide formate] and COc1ccc(-c2cnc(C(=O)Nc3ccc(C(=O)N4CCN(C(=O)C5CC(CN)C5)CC4)c(Cl)c3)n2C)c(F)c1F (stereo not drawn) [Example 185, N-[4-[4-[3-(aminomethyl)cyclobutanecarbonyl]piperazine-1-carbonyl]-3-chloro-phenyl]-5-(2,3-difluoro-4-methoxy-phenyl)-1-methyl-imidazole-2-carboxamide formate] are within 1.5-fold of each other in IC90: 70 nM for the first, 60 nM for the second.

First: Cn1c(-c2ccc(OCC#N)c(F)c2F)cnc1C(=O)Nc1ccc(C(=O)N2CCN(C(=O)CN3CC[C@@H](C(=O)O)C3)CC2)c(Cl)c1 [Example 215, (R)-1-(2-(4-(2-chloro-4-(5-(4-(cyanomethoxy)-2,3-difluorophenyl)-1-methyl-1H-imidazole-2-carboxamido)benzoyl)piperazin-1-yl)-2-oxoethyl)pyrrolidine-3-carboxylic acid 2,2,2-trifluoroacetic acid]
Second: COc1ccc(-c2cnc(C(=O)Nc3ccc(C(=O)N4CCC(C(=O)NCCC(=O)O)CC4)c(Cl)c3)n2C)c(F)c1F [Example 67, 3-[[1-[2-chloro-4-[[5-(2,3-difluoro-4-methoxy-phenyl)-1-methyl-imidazole-2-carbonyl]amino]benzoyl]piperidine-4-carbonyl]amino]propanoic acid]
The IC90 of the first is 4.1-fold lower: 800 nM for the first, 3300 nM for the second.

Going from Cc1cc(NC(=O)c2ncc(-c3ccc(OCC#N)c(F)c3F)n2C)ccc1C(=O)N1CCC(C(=O)N2CCO[C@H](CN)C2)CC1 [Example 83, (R)-N-(4-(4-(2-(aminomethyl)morpholine-4-carbonyl)piperidine-1-carbonyl)-3-methylphenyl)-5-(4-(cyanomethoxy)-2,3-difluorophenyl)-1-methyl-1H-imidazole-2-carboxamide 2,2,2-trifluoroacetate] to COc1ccc(-c2cnc(C(=O)Nc3ccc(C(=O)N4CCC(NS(=O)(=O)CCN)CC4)c(Cl)c3)n2C)c(F)c1F [Example 236, N-[4-[4-(2-aminoethylsulfonylami-no)piperidine-1-carbonyl]-3-chloro-phenyl]-5-(2,3-difluoro-4-methoxy-phenyl)-1-methyl-imidazole-2-carboxamide], the IC90 falls from 170 nM to 60 nM (2.8-fold).

Compared with Cn1c(-c2ccc(OCF)cc2F)cnc1C(=O)Nc1ccc(C(=O)N2CCN(C(=O)N3CC[C@@H](N)C3)CC2)c(Cl)c1 [Example 26, (R)-N-(4-(4-(3-aminopyrrolidine-1-carbonyl)piperazine-1-carbonyl)-3-chlorophenyl)-5-(2-fluoro-4-(fluoromethoxy)phenyl)-1-methyl-1H-imidazole-2-carboxamide formate], COc1ccc(-c2cnc(C(=O)Nc3ccc(C(=O)N4C[C@H]5CN(C(=O)CN(C)C)C[C@H]5C4)c(Cl)c3)n2C)c(F)c1F [Example 190, N-[4-[(3aS,6aR)-2-[2-(dimethylamino)acetyl]-1,3,3a,4,6,6a-hexahydropyrrolo[3,4-c]pyrrole-5-carbonyl]-3-chloro-phenyl]-5-(2,3-difluoro-4-methoxy-phenyl)-1-methyl-imidazole-2-carboxamide formate] is 6-fold higher in IC90: 30 nM for the first, 180 nM for the second.

Same assay, conditions: Acinetobacter baumannii, ATCC17961, read-out: ATCC 17961 IC90

With COc1ccc(-c2cnc(C(=O)Nc3ccc(C(=O)N4CCN(CC5CCNC5)CC4)c(Cl)c3)n2C)c(F)c1F (stereo not drawn) [Example 291, N-[3-chloro-4-[4-(pyrrolidin-3-ylmethyl)piperazine-1-carbonyl]phenyl]-5-(2,3-difluoro-4-methoxy-phenyl)-1-methyl-imidazole-2-carboxamide formate] the IC90 was 50 nM.

— patent US20220396565A1 (Hoffmann-La Roche Inc., priority 2020, published 2022)
